Data as given in US20260306503A1, “(S)-2-HYDROXY-6-((4-(2-(2-HYDROXYETHYL)NICOTINOYL)MORPHOLIN-3-YL)METHOXY)BENZALDEHYD FOR USE IN THE TREATMENT OF SICKLE CELL DISEASE” (Global Blood Therapeutics, Inc., priority 2023, published 2026).

Tested on: participants with SCD
Assay: Preliminary blood analysis of SCD patients given oral Compound I, 300 mg QD for 14 days then 200 mg QD through Week 12 (Part A Sub Study 2);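 for Bilirubin total: values in mg/dL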
Assay type: in vivo, human
Procedure: Part A of this study is a Phase 2 randomized, open-label, dose-finding study in approximately 60 adult participants with SCD. The primary objective of Part A of this study is to assess the effects of Compound I in adult participants with SCD as measured by change in hemoglobin.
Participants are screened for eligibility in the study from Day −28 through Day −1. Eligible participants are randomized on Day 1 based on a 1:1 (100 mg: 150 mg) allocation and will receive their initial dose (loading dose) of Compound I. After completion of Day 1 assessments and subsequent loading doses, participants will continue with administration of their maintenance dose daily through Week 12.
Some newly enrolled participants in Part A will receive a loading dose regimen of 300 mg of Compound I once daily over the first 14 days. Participants will then receive 200 mg once daily maintenance doses through Week 12.

O=Cc1c(O)cccc1OC[C@@H]1COCCN1C(=O)c1cccnc1CCO [Compound I, (S)-2-hydroxy-6-((4-(2-(2-hydroxyethyl)nicotinoyl)morpholin-3-yl)methoxy)benzaldehyde]
Bilirubin direct (Patient A, Day 1, Day 0 (screening) 0.48): <0.01 mg/dL
Absolute neutrophil (Patient A, Day 1, Day 0 (screening) 1.7): 2.2 K/μL
Reticulocytes (Patient A, Day 1, Day 0 (screening) 2.2): 5.2%
Bilirubin total (Patient A, Day 1, Day 0 (screening) 2.4): 2.16 mg/dL
Hemoglobin (HGB) (Patient A, Day 1, Day 0 (screening) 7.0): 8.8 g/dL
Hematocrit (HCT) (Patient A, Day 1, Day 0 (screening) 20.4): 25.1%
Alanine Aminotransferase (ALT) (Patient A, Day 1, Day 0 (screening) 26.1): 28.2 IU/L
Aspartate Aminotransferase (AST) (Patient A, Day 1, Day 0 (screening) 56.0): 60.0 IU/L
Alkaline phosphatase (Patient A, Day 1, Day 0 (screening) 143.5): 152.7 IU/L
Platelet count (Patient A, Day 1, Day 0 (screening) 148): 219 K/μL
Lactate dehydrogenase (LDH) (Patient A, Day 1, Day 0 (screening) 358): 339 IU/L
Bilirubin direct (Patient A, Day 15, Day 0 (screening) 0.48): <0.01 mg/dL
Absolute neutrophil (Patient A, Day 15, Day 0 (screening) 1.7): 2.2 K/μL
Reticulocytes (Patient A, Day 15, Day 0 (screening) 2.2): 3.0%
Bilirubin total (Patient A, Day 15, Day 0 (screening) 2.4): 1.06 mg/dL
Hemoglobin (HGB) (Patient A, Day 15, Day 0 (screening) 7.0): 10.6 g/dL
Hematocrit (HCT) (Patient A, Day 15, Day 0 (screening) 20.4): 30.9%
Alanine Aminotransferase (ALT) (Patient A, Day 15, Day 0 (screening) 26.1): 26.1 IU/L
Aspartate Aminotransferase (AST) (Patient A, Day 15, Day 0 (screening) 56.0): 43.1 IU/L
Alkaline phosphatase (Patient A, Day 15, Day 0 (screening) 143.5): 156.7 IU/L
Platelet count (Patient A, Day 15, Day 0 (screening) 148): 239 K/μL
Lactate dehydrogenase (LDH) (Patient A, Day 15, Day 0 (screening) 358): 243 IU/L
Absolute neutrophil (Patient A, Day 29, Day 0 (screening) 1.7): 0.5 K/μL
Reticulocytes (Patient A, Day 29, Day 0 (screening) 2.2): 2.0%
Hemoglobin (HGB) (Patient A, Day 29, Day 0 (screening) 7.0): 12.2 g/dL
Hematocrit (HCT) (Patient A, Day 29, Day 0 (screening) 20.4): 35.9%
Platelet count (Patient A, Day 29, Day 0 (screening) 148): 211 K/μL
Bilirubin direct (Patient A, Day 43, Day 0 (screening) 0.48): 0.28 mg/dL
Absolute neutrophil (Patient A, Day 43, Day 0 (screening) 1.7): 0.6 K/μL
Bilirubin indirect (Patient A, Day 43, Day 0 (screening) 1.92): 0.78 mg/dL
Reticulocytes (Patient A, Day 43, Day 0 (screening) 2.2): 1.5%
Bilirubin total (Patient A, Day 43, Day 0 (screening) 2.4): 1.06 mg/dL
Hemoglobin (HGB) (Patient A, Day 43, Day 0 (screening) 7.0): 14.9 g/dL
Hematocrit (HCT) (Patient A, Day 43, Day 0 (screening) 20.4): 43.3%
Alanine Aminotransferase (ALT) (Patient A, Day 43, Day 0 (screening) 26.1): 28.9 IU/L
Aspartate Aminotransferase (AST) (Patient A, Day 43, Day 0 (screening) 56.0): 44.1 IU/L
Alkaline phosphatase (Patient A, Day 43, Day 0 (screening) 143.5): 160.8 IU/L
Platelet count (Patient A, Day 43, Day 0 (screening) 148): 249 K/μL
Lactate dehydrogenase (LDH) (Patient A, Day 43, Day 0 (screening) 358): 193 IU/L
Bilirubin direct (Patient A, Day 57, Day 0 (screening) 0.48): 0.38 mg/dL
Absolute neutrophil (Patient A, Day 57, Day 0 (screening) 1.7): 3.5 K/μL
Bilirubin indirect (Patient A, Day 57, Day 0 (screening) 1.92): 2.39 mg/dL
Reticulocytes (Patient A, Day 57, Day 0 (screening) 2.2): 0.1%
Bilirubin total (Patient A, Day 57, Day 0 (screening) 2.4): 2.77 mg/dL
Hemoglobin (HGB) (Patient A, Day 57, Day 0 (screening) 7.0): 12.4 g/dL
Hematocrit (HCT) (Patient A, Day 57, Day 0 (screening) 20.4): 36.3%
Alanine Aminotransferase (ALT) (Patient A, Day 57, Day 0 (screening) 26.1): 66.6 IU/L
Aspartate Aminotransferase (AST) (Patient A, Day 57, Day 0 (screening) 56.0): 82.9 IU/L
Alkaline phosphatase (Patient A, Day 57, Day 0 (screening) 143.5): 198.2 IU/L
Platelet count (Patient A, Day 57, Day 0 (screening) 148): 153 K/μL
Lactate dehydrogenase (LDH) (Patient A, Day 57, Day 0 (screening) 358): 345 IU/L
Bilirubin direct (Patient A, Day 85, Day 0 (screening) 0.48): 0.08 mg/dL
Absolute neutrophil (Patient A, Day 85, Day 0 (screening) 1.7): 1.1 K/μL
Bilirubin indirect (Patient A, Day 85, Day 0 (screening) 1.92): 2.81 mg/dL
Reticulocytes (Patient A, Day 85, Day 0 (screening) 2.2): 5.2%
Bilirubin total (Patient A, Day 85, Day 0 (screening) 2.4): 2.89 mg/dL
Hemoglobin (HGB) (Patient A, Day 85, Day 0 (screening) 7.0): 11.0 g/dL
Hematocrit (HCT) (Patient A, Day 85, Day 0 (screening) 20.4): 31.0%
Alanine Aminotransferase (ALT) (Patient A, Day 85, Day 0 (screening) 26.1): 28.2 IU/L
Aspartate Aminotransferase (AST) (Patient A, Day 85, Day 0 (screening) 56.0): 54.0 IU/L
Alkaline phosphatase (Patient A, Day 85, Day 0 (screening) 143.5): 150.6 IU/L
Platelet count (Patient A, Day 85, Day 0 (screening) 148): 146 K/μL
Lactate dehydrogenase (LDH) (Patient A, Day 85, Day 0 (screening) 358): 354 IU/L
Bilirubin direct (Patient B, Day 1, Day 0 (screening) 0.18): 0.18 mg/dL
Bilirubin indirect (Patient B, Day 1, Day 0 (screening) 4.66): 4.17 mg/dL
Bilirubin total (Patient B, Day 1, Day 0 (screening) 4.84): 4.35 mg/dL
Absolute neutrophil (Patient B, Day 1, Day 0 (screening) 6.9): 7.3 K/μL
Hemoglobin (HGB) (Patient B, Day 1, Day 0 (screening) 8.3): 8.5 g/dL
Reticulocytes (Patient B, Day 1, Day 0 (screening) 11.5): 9.5%
Alanine Aminotransferase (ALT) (Patient B, Day 1, Day 0 (screening) 22.0): 22.0 IU/L
Hematocrit (HCT) (Patient B, Day 1, Day 0 (screening) 23.5): 24.7%
Aspartate Aminotransferase (AST) (Patient B, Day 1, Day 0 (screening) 41.1): 39.1 IU/L
Alkaline phosphatase (Patient B, Day 1, Day 0 (screening) 49.3): 52.4 IU/L
Platelet count (Patient B, Day 1, Day 0 (screening) 360): 344 K/μL
Lactate dehydrogenase (LDH) (Patient B, Day 1, Day 0 (screening) 371): 351 IU/L
Bilirubin direct (Patient B, Day 8, Day 0 (screening) 0.18): 0.08 mg/dL
Bilirubin indirect (Patient B, Day 8, Day 0 (screening) 4.66): 2.32 mg/dL
Bilirubin total (Patient B, Day 8, Day 0 (screening) 4.84): 2.4 mg/dL
Absolute neutrophil (Patient B, Day 8, Day 0 (screening) 6.9): 4.1 K/μL
Hemoglobin (HGB) (Patient B, Day 8, Day 0 (screening) 8.3): 11.2 g/dL
Reticulocytes (Patient B, Day 8, Day 0 (screening) 11.5): 5.4%
Alanine Aminotransferase (ALT) (Patient B, Day 8, Day 0 (screening) 22.0): 21.3 IU/L
Hematocrit (HCT) (Patient B, Day 8, Day 0 (screening) 23.5): 33.1%
Aspartate Aminotransferase (AST) (Patient B, Day 8, Day 0 (screening) 41.1): 42.1 IU/L
Alkaline phosphatase (Patient B, Day 8, Day 0 (screening) 49.3): 58.5 IU/L
Platelet count (Patient B, Day 8, Day 0 (screening) 360): 411 K/μL
Lactate dehydrogenase (LDH) (Patient B, Day 8, Day 0 (screening) 371): 385 IU/L
Bilirubin direct (Patient B, Day 29, Day 0 (screening) 0.18): 0.18 mg/dL
Bilirubin indirect (Patient B, Day 29, Day 0 (screening) 4.66): 0.88 mg/dL
Bilirubin total (Patient B, Day 29, Day 0 (screening) 4.84): 1.06 mg/dL
Absolute neutrophil (Patient B, Day 29, Day 0 (screening) 6.9): 4.1 K/μL
Hemoglobin (HGB) (Patient B, Day 29, Day 0 (screening) 8.3): 14.4 g/dL
Reticulocytes (Patient B, Day 29, Day 0 (screening) 11.5): 1.2%
Alanine Aminotransferase (ALT) (Patient B, Day 29, Day 0 (screening) 22.0): 17.2 IU/L
Hematocrit (HCT) (Patient B, Day 29, Day 0 (screening) 23.5): 42.8%
Aspartate Aminotransferase (AST) (Patient B, Day 29, Day 0 (screening) 41.1): 29.1 IU/L
Alkaline phosphatase (Patient B, Day 29, Day 0 (screening) 49.3): 67.6 IU/L
Platelet count (Patient B, Day 29, Day 0 (screening) 360): 333 K/μL
Lactate dehydrogenase (LDH) (Patient B, Day 29, Day 0 (screening) 371): 195 IU/L
Bilirubin direct (Patient B, Day 43, Day 0 (screening) 0.18): 0.18 mg/dL
Bilirubin indirect (Patient B, Day 43, Day 0 (screening) 4.66): 0.51 mg/dL
Bilirubin total (Patient B, Day 43, Day 0 (screening) 4.84): 0.69 mg/dL
Absolute neutrophil (Patient B, Day 43, Day 0 (screening) 6.9): 3.7 K/μL
Hemoglobin (HGB) (Patient B, Day 43, Day 0 (screening) 8.3): 15.2 g/dL
Reticulocytes (Patient B, Day 43, Day 0 (screening) 11.5): 0.8%
Alanine Aminotransferase (ALT) (Patient B, Day 43, Day 0 (screening) 22.0): 16.5 IU/L
